# US6358885B1, “Substituted phenylheterocyclic herbicides” (Mississippi State University, priority 1992, dated 2002)
# Assays:
# [1] = system: wheat; assay: Test B preemergence/postemergence greenhouse plant response rating 0 to 10; format: in vivo, Triticum aestivum; settings: 0 to 10 scale
# How it was run: (§1)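 Planted seeds are treated preemergence with compound dissolved in a non-phytotoxic solvent, while postemergence applications go onto plants of two to eighteen cm. Plants stay in the greenhouse twelve to sixteen days and are then rated visually relative to controls.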
# [2] = system: giant foxtail; assay: Test C preemergence/postemergence greenhouse plant response rating 0 to 100; format: in vivo, Setaria faberii; settings: POSTEMERGENCE; for Plant response rating, Giant foxtail: 0 to 100 scale
# How it was run: (§2)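 Compounds in non-phytotoxic solvent went onto sandy loam before emergence (seeded one day earlier) or onto plants at the one-to-four leaf stage. Duck salad was treated via flood water (~2.5 cm, maintained) over silt loam.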
# [3] = system: bedstraw; assay: as above; format: in vivo, Galium aparine; settings: POSTEMERGENCE; for Plant response rating, Bedstraw: 0 to 100 scale
# How it was run: as §2
# [4] = system: lambsquarters; assay: Test B preemergence/postemergence greenhouse plant response rating 0 to 10; format: in vivo, Chenopodium album; settings: 0 to 10 scale
# How it was run: as §1
# [5] = system: corn; assay: as above; format: in vivo, Zea mays; settings: 0 to 10 scale
# How it was run: as §1
# [6] = system: lambsquarters; assay: Test C preemergence/postemergence greenhouse plant response rating 0 to 100; format: in vivo, Chenopodium album; settings: POSTEMERGENCE; for Plant response rating Lambsquarters: 0 to 100 scale
# How it was run: as §2
# [7] = system: rice; assay: Test B preemergence/postemergence greenhouse plant response rating 0 to 10; format: in vivo, Oryza sativa; settings: 0 to 10 scale
# How it was run: as §1
# [8] = system: wild oat; assay: as above; format: in vivo, Avena fatua; settings: 0 to 10 scale
# How it was run: as §1
# [9] = system: downy brome; assay: Test C preemergence/postemergence greenhouse plant response rating 0 to 100; format: in vivo, Bromus tectorum; settings: POSTEMERGENCE; for Plant response rating Downy Brome: 0 to 100 scale
# How it was run: as §2
# [10] = system: cotton; assay: as above; format: in vivo, Gossypium hirsutum; settings: POSTEMERGENCE; for Plant response rating, Cotton: 0 to 100 scale
# How it was run: as §2
# [11] = system: sorghum; assay: as above; format: in vivo, Sorghum bicolor; settings: POSTEMERGENCE; for Plant response rating, Sorghum: 0 to 100 scale
# How it was run: as §2
# [12] = system: duck salad; assay: Test C flood test plant response rating 0 to 100; format: in vivo, Heteranthera limosa; settings: for Plant response rating (0 to 100), Duck salad: under POSTEMERGENCE head (flood test species); for Plant response rating Duck salad: flood test species listed under POSTEMERGENCE, 0 to 100 scale
# How it was run: as §2
# [13] = system: crabgrass; assay: Test C preemergence/postemergence greenhouse plant response rating 0 to 100; format: in vivo, Digitaria sanguinalis; settings: POSTEMERGENCE; for Plant response rating, Crabgrass: 0 to 100 scale
# How it was run: as §2
# [14] = system: barnyardgrass; assay: Test C flood test plant response rating 0 to 100; format: in vivo, Echinochloa crus-galli; settings: for Plant response rating (0 to 100), Barnyardgrass: under POSTEMERGENCE head (flood test species); for Plant response rating, Barnyardgrass: flood test species listed under POSTEMERGENCE, 0 to 100 scale
# How it was run: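 Compounds in non-phytotoxic solvent applied preemergence to sandy loam one day after planting, postemergence at the 1–4 leaf stage, or to ~2.5 cm floodwater over silt loam.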
# [15] = system: cotton; assay: Test B preemergence/postemergence greenhouse plant response rating 0 to 10; format: in vivo, Gossypium hirsutum; settings: 0 to 10 scale
# How it was run: as §1
# [16] = system: velvetleaf; assay: Test C preemergence/postemergence greenhouse plant response rating 0 to 100; format: in vivo, Abutilon theophrasti; settings: POSTEMERGENCE; for Plant response rating, Velvetleaf: 0 to 100 scale
# How it was run: as §2
# [17] = system: cheatgrass; assay: Test B preemergence/postemergence greenhouse plant response rating 0 to 10; format: in vivo, Bromus secalinus; settings: 0 to 10 scale
# How it was run: as §1
# [18] = system: sugar beet; assay: Test C preemergence/postemergence greenhouse plant response rating 0 to 100; format: in vivo, Beta vulgaris; settings: POSTEMERGENCE; for Plant response rating, Sugar beet: 0 to 100 scale
# How it was run: as §2
smiles,measurement,setting,value
C#CC(C)Oc1cc(-c2nn3c(c2Cl)CCCC3)c(F)cc1Cl (centres unmarked) [Compound 36],"Plant response rating, Wheat","[1]; POSTEMERGENCE, Rate 50 g/ha",5
same,"Plant response rating, Wheat","[1]; PREEMERGENCE, Rate 50 g/ha",5
same,"Plant response rating, Wheat","[1]; Rate 200 g/ha, POSTEMERGENCE",6
same,"Plant response rating, Wheat","[1]; Rate 200 g/ha, PREEMERGENCE",5
same,"Plant response rating, Giant foxtail",[2]; 62 g/ha,75
same,"Plant response rating, Giant foxtail",[2]; 125 g/ha,85
same,"Plant response rating (0 to 100), Giant foxtail",[2]; Rate 16 g/ha,50
same,"Plant response rating (0 to 100), Giant foxtail",[2]; Rate 31 g/ha,60
same,"Plant response rating, Bedstraw",[3]; 62 g/ha,100
same,"Plant response rating, Bedstraw",[3]; 125 g/ha,100
same,"Plant response rating (0 to 100), Bedstraw",[3]; Rate 16 g/ha,90
same,"Plant response rating (0 to 100), Bedstraw",[3]; Rate 31 g/ha,100
same,"Plant response rating, Lambsquarter","[4]; POSTEMERGENCE, Rate 50 g/ha",10
same,"Plant response rating, Lambsquarter","[4]; PREEMERGENCE, Rate 50 g/ha",10
same,"Plant response rating, Lambsquarter","[4]; Rate 200 g/ha, POSTEMERGENCE",10
same,"Plant response rating, Lambsquarter","[4]; Rate 200 g/ha, PREEMERGENCE",10
same,"Plant response rating, Corn","[5]; POSTEMERGENCE, Rate 50 g/ha",5
same,"Plant response rating, Corn","[5]; POSTEMERGENCE, Rate 200 g/ha",6
same,"Plant response rating, Corn","[5]; PREEMERGENCE, Rate 50 g/ha",0
same,"Plant response rating, Corn","[5]; Rate 200 g/ha, PREEMERGENCE",4
same,Plant response rating Lambsquarters,[6]; 62 g/ha,100
same,Plant response rating Lambsquarters,[6]; 125 g/ha,100
same,"Plant response rating (0 to 100), Lambsquarters",[6]; Rate 16 g/ha,90
same,"Plant response rating (0 to 100), Lambsquarters",[6]; Rate 31 g/ha,95
same,"Plant response rating, Rice","[7]; POSTEMERGENCE, Rate 50 g/ha",6
same,"Plant response rating, Rice","[7]; PREEMERGENCE, Rate 50 g/ha",0
same,"Plant response rating, Rice","[7]; Rate 200 g/ha, POSTEMERGENCE",6
same,"Plant response rating, Rice","[7]; Rate 200 g/ha, PREEMERGENCE",4
same,"Plant response rating, Wild oat","[8]; POSTEMERGENCE, Rate 50 g/ha",5
same,"Plant response rating, Wild oat","[8]; PREEMERGENCE, Rate 50 g/ha",3
same,"Plant response rating, Wild oat","[8]; Rate 200 g/ha, POSTEMERGENCE",6
same,Plant response rating Downy Brome,[9]; 62 g/ha,40
same,Plant response rating Downy Brome,[9]; 125 g/ha,50
same,"Plant response rating (0 to 100), Downy Brome",[9]; Rate 16 g/ha,20
same,"Plant response rating (0 to 100), Downy Brome",[9]; Rate 31 g/ha,30
same,"Plant response rating, Cotton",[10]; 62 g/ha,100
same,"Plant response rating, Cotton",[10]; 125 g/ha,100
same,"Plant response rating (0 to 100), Cotton",[10]; Rate 16 g/ha,100
same,"Plant response rating (0 to 100), Cotton",[10]; Rate 31 g/ha,100
same,"Plant response rating, Sorghum",[11]; 62 g/ha,60
same,"Plant response rating, Sorghum",[11]; 125 g/ha,70
same,"Plant response rating (0 to 100), Sorghum",[11]; Rate 16 g/ha,40
same,"Plant response rating (0 to 100), Sorghum",[11]; Rate 31 g/ha,50
same,"Plant response rating (0 to 100), Duck salad",[12]; Rate 16 g/ha,0
same,"Plant response rating (0 to 100), Duck salad",[12]; Rate 31 g/ha,0
same,Plant response rating Duck salad,[12]; 62 g/ha,30
same,Plant response rating Duck salad,[12]; 125 g/ha,50
same,"Plant response rating, Crabgrass",[13]; 62 g/ha,50
same,"Plant response rating, Crabgrass",[13]; 125 g/ha,60
same,"Plant response rating (0 to 100), Crabgrass",[13]; Rate 16 g/ha,20
same,"Plant response rating (0 to 100), Crabgrass",[13]; Rate 31 g/ha,30
same,"Plant response rating (0 to 100), Barnyardgrass",[14]; Rate 16 g/ha,100
same,"Plant response rating (0 to 100), Barnyardgrass",[14]; Rate 31 g/ha,100
same,"Plant response rating, Barnyardgrass",[14]; 62 g/ha,100
same,"Plant response rating, Barnyardgrass",[14]; 125 g/ha,100
same,"Plant response rating, Cotton","[15]; POSTEMERGENCE, Rate 50 g/ha",9
same,"Plant response rating, Cotton","[15]; POSTEMERGENCE, Rate 200 g/ha",10
same,"Plant response rating, Cotton","[15]; PREEMERGENCE, Rate 50 g/ha",4
same,"Plant response rating, Cotton","[15]; Rate 200 g/ha, PREEMERGENCE",6
same,"Plant response rating, Velvetleaf",[16]; 62 g/ha,100
same,"Plant response rating, Velvetleaf",[16]; 125 g/ha,100
same,"Plant response rating (0 to 100), Velvetleaf",[16]; Rate 16 g/ha,100
same,"Plant response rating (0 to 100), Velvetleaf",[16]; Rate 31 g/ha,100
same,"Plant response rating, Cheatgrass","[17]; POSTEMERGENCE, Rate 50 g/ha",5
same,"Plant response rating, Cheatgrass","[17]; POSTEMERGENCE, Rate 200 g/ha",7
same,"Plant response rating, Cheatgrass","[17]; PREEMERGENCE, Rate 50 g/ha",4
same,"Plant response rating, Cheatgrass","[17]; Rate 200 g/ha, PREEMERGENCE",6
same,"Plant response rating, Sugar beet",[18]; 62 g/ha,100
same,"Plant response rating, Sugar beet",[18]; 125 g/ha,100
same,"Plant response rating (0 to 100), Sugar beet",[18]; Rate 16 g/ha,95
same,"Plant response rating (0 to 100), Sugar beet",[18]; Rate 31 g/ha,100
